Data on one compound can be found in paper PMC7672424 (Nucleic Acids Research, 2020).

By ΔTm is commonly meant the change in melting temperature against a reference sample. By IC50 is commonly meant the concentration that gives 50% inhibition.

Molecules are shown by their SMILES.

Experiment [1] has as its system TTA (DNA, G4) GGGTTAGGGTTAGGGTTAGGG
In words: CD melting. As to conditions: 50 mM K+; 10 mM Tris-HCl pH 7.4; 5 µM DNA, 20 µM compound.

The subject of experiment [2] is c-KIT1 (DNA, G4) AGGGAGGGCGCTGGGAGGAGGG
In words: CD melting. Conditions: 50 mM K+; 10 mM Tris-HCl pH 7.4; 5 µM DNA, 20 µM compound.

The subject of experiment [3] is TTA45. Briefly: FRET melting assay, stabilization of TTA45. The format is binding, human. Conditions: 0.5 µM TTA45, 10 mM K2HPO4/KH2PO4, 100 mM KCl, pH 7.0. As to the method:
Based on the conventional G-quadruplex ligand design ([46]), ∼400 compounds were selected from Chinese National Compound library of Peking University (PKU-CNCL). These compounds were evaluated for their ability to bind to TTA45 by Fluorescence Resonance Energy Transfer (FRET) assay (Supplementary Tables S1 and S2) ([47]). […] Compounds 21-38 were purchased to study their binding with TTA45 by FRET (Supplementary Table S3). […] page 4: Table S2. Stabilization of TTA45 as determined by FRET assays (continued). Compounds Structures ΔTm/°C Compounds Structures ΔTm/°C 23 10.3 25 14.6 […] OH 24 […] KCl, pH 7.0) was determined by FRET procedure, and Tm/°C were derived by their difference. The concentration of compounds 21-26 were 20 μM , and other compounds were 50 μM. FRET assay was carried out on the Real-Time PCR 3.2 machine (Analytik Jena, Germany). The total reaction volume was 20 μL with 0.5 μM of oligonucleotide labelled with FAM at the 3' end and TAMRA at 5' end in 10 mM K2HPO4/KH2PO4 (pH 7.0) containing 100 mM KCl. […] Then compounds with various concentrations were added into the DNA samples.

Experiment [4] has as its system TTA45. In words: CD melting, DNA stabilization. As to conditions: 5 µM DNA, 20 µM compound, 10 mM Tris-HCl, 50 mM KCl, pH 7.4. It is filed as binding, human. The source says:
Compounds Structures IC /µM m

The test system of a further experiment is TBA. Briefly: CD melting, DNA stabilization. It is filed as binding. As to conditions: 5 µM DNA, 20 µM BMPQ-1, 10 mM Tris-HCl, 50 mM KCl, pH 7.4.
In another experiment the test system is c-KIT1. In words: CD melting, DNA stabilization. It is filed as binding. As to conditions: 5 µM DNA, 20 µM BMPQ-1, 10 mM Tris-HCl, 50 mM KCl, pH 7.4.
Experiment [5] relates to human normal liver cells (HL-7702). In words: Cell cytotoxicity assay (CCK8). It is filed as cell-based. Conditions: L02, CCK8, 48 h treatment. On the procedure: The cell growth effect of BMPQ-1 against different cell lines were tested via measuring the quantity of living cells using the Cell Counting Kit-8 (CCK8) (DOJINDO, Japan) according to the instruction. Cells were seeded in a 96-well plate (5 × 10^3 cells/well) and grown for 24 h for attachment. Then the cells were treated with various concentrations of BMPQ-1 and incubated at 37°C with 5% CO2 for 48 h. After incubation, the old medium was discarded followed by adding fresh medium containing 10% FBS in DMEM. Then 100 μl CCK-8 (10% in grow medium) was added into each well, and the cells were further incubated for 1 h. The optical density (OD) was detected at 450 nm by an automated microplate reader (Bio-Rad). The IC50 values were derived from the curves of the mean percentage of survival against the drug concentration. All the experiments were performed in triplicate.
A Cell Counting Kit-8 (CCK8) (DOJINDO, Japan) was employed to evaluate the cytotoxicity of BMPQ-1 on human alveolar basal epithelial cancer cell line (A549), human hepatocellular carcinoma cancer cell line (HepG2), human gastric cancer cell line (MGC-803), human colon adenocarcinoma (HT29), human normal liver Cells (HL-7702).

A further experiment deals with γH2AX foci in A549 cells. Briefly: Immunofluorescence of γH2AX and TRF2 foci. The format is cell-based, human. Conditions: A549, 1.5 μM, 24 h. As to the method:
(§1) The cells (5 × 10^4 cells) were seeded on 35-mm glass-bottomed dishes and grown for 24 h for attachment. Then old medium was replaced by fresh DMEM containing 1.5 μM BMPQ-1 and incubated for 24 h. After washed three times with PBS buffer, the cells were fixed in 4% paraformaldehyde/PBS for 15 min and then permeabilized with 0.3% Triton-X 100/PBS at 37°C for 20 min. Then the cells were blocked with 5% BSA/PBS at 37°C for 1 h. Finally, the cells were incubated with primary antibodies at 37°C for 3 h. After that, the cells were washed six times with blocking buffer, and were then incubated with secondary antibodies at 37°C for 3 h. Finally, the cells were washed six times with PBS buffer again. The digital images were recorded using a confocal laser scanning microscopy (Olympus FV1000) and analyzed with ImageJ software. One hundred nuclei were counted in each group. […]
(§2) Figure 2. […] (B) Quantification of the number of γH2AX foci per nucleus in A549 cells treated with or without BMPQ-1. (C) Quantification of the colocalization of γH2AX and TRF2 per nucleus in A549 cells treated with or without BMPQ-1. […] (E) Quantification of the number of BG4 foci per nucleus in A549 cells treated with or without BMPQ-1. (F) Quantification of the colocalized BG4 and TRF2 per nucleus in A549 cells treated with or without BMPQ-1.

Experiment [6] relates to BG4 foci (DNA G-quadruplexes) in A549 cells. Briefly: Immunofluorescence of BG4 and TRF2 foci. It is filed as cell-based, human. As to conditions: A549, 1.5 μM, 24 h. As to the method:
as §1, §2

The test system of the next experiment is TTA. As to conditions: CD melting; 5 µM DNA, 20 µM compound; 10 mM Tris-HCl, 50 mM KCl, pH 7.4.
Experiment [7] deals with VEGF (DNA, G4) GGGAGGGTTGGGGTGGG
Briefly: ligand fluorescence enhancement. Conditions: 100 mM K+ (KCl) plus potassium phosphate; 10 mM K2HPO4/KH2PO4 pH 7.0; 3 µM compound, 4 µM DNA; enhancement below 3-fold.

With `Cc1ccc(Cn2cc3c(-c4ccc5c(c4)OCO5)nnc-3c3cc4c(cc32)OCO4)cc1` [BMPQ-1], the ΔTm in experiment [1] is 8.4 °C. Moreover, the ΔTm in experiment [2] is 6.6 °C. Besides, in the experiment with TTA45 [3] (20 µM compounds), the “ΔTm/°C, TTA45 stabilization by FRET (Table S3)” value was 16.09 ± 1.79 °C. Further, the “ΔTm/°C, stabilization of TTA45 by FRET (Table S2)” value in the experiment on TTA45 [3] (compounds 21-26 20 µM) was determined as 16.1 °C. For the same compound, in the experiment with TTA45 [4], the “ΔTm (°C) TTA45” value is 14.6 °C. For the same compound, the “ΔTm (°C) TBA” value in the experiment with TBA was 4.7 °C. The “ΔTm (°C) c-KIT1” value in the experiment on c-KIT1 turned out to be 6.6 °C. Moreover, the IC50 in [5] came out at 4.38 ± 0.39 µM. Also, in the experiment on γH2AX foci in A549 cells, the “co-localization between γH2AX foci and TRF2” value was “increase on the co-localization between γH2AX foci and TRF2 was observed with statistical significance”. Besides, in the experiment on γH2AX foci in A549 cells (compared with control), the “average number of γH2AX foci in individual cells” value is given as “trebled”. Further, in experiment [6], the “amount of BG4 foci in the nucleus” value is on record as “significant increase”; the “amount of co-localized BG4 and TRF2 foci” value is given as “significantly increased”. Further, the “ΔTm (°C) TTA” value in the experiment on TTA turned out to be 8.4 °C. Besides, in experiment [7], the binding result is “weak”.
